Ends that are not written are not given here. Peptide text beside a SMILES is read from it.
What was measured:
[1] = target: TMOF receptor (mosquito gut receptor) (Aedes aegypti); assay: cell-based or functional assay
[2] = tested on: first instar Heliothis virescens; assay: Feeding first instar H. virescens on TMOF analogs for 14 days; type: in vivo; design: Weight Reduction ± S.E.M.: concentration or dose not given beside the values; conditions: first instar larvae fed 14 days; for Weight Reduction ± S.E.M.: versus control
Experimental: (§1) Several analogues were chosen and were fed to fourth instar Heliothis virescens for seven (7) days and to first instars for fourteen (14) days (Tables 3 and 4). In both cases a reduction in weight gain and trypsin inhibition was noted (Tables 3 and 4).
(§2) Individual first instar and fourth instar larvae of H. virescens were maintained in separate plastic cups and were fed on artificial diet blocks on which different concentrations of TMOF (0 to 1.6 mg) were adsorbed. Larvae were fed for 5 to 14 days and larval weight and trypsin activity were measured at the end of the experimental periods. […] When first instar larvae were fed for 14 days, an 18% and 26% reduction in weight was observed when analogues 15 and 16 were used (Table 4).

[3] = tested on: fourth instar Heliothis virescens; assay: Feeding TMOF analogs to fourth instar H. virescens: larval weight; type: in vivo; conditions: fourth instar larvae; for Weight Gain: 0.8 mg of analogue, 5 days; for Weight mg ± S.E.M. End: synthetic food and 0.8 mg of analogue, after 5 days; for Weight mg ± S.E.M. Start: weight before feeding (baseline)
Experimental: as §1, §2
Fourth instar larvae were weighed and fed on synthetic food and 0.8 mg of TMOF analogues for 5 days. […]. Results are average of 3 to 10 experiments S.E.M.

[4] = tested on: Aedes aegypti larvae; assay: Feeding TMOF and analog peptides to mosquito larvae (LD50); type: in vivo; conditions: newly hatched larvae on autoclaved yeast 1 mg/ml, peptide 0 to 5.0 mg/ml, microtiter plates, 7 days
Description: TMOF can traverse the gut epithelium, enter the hemolymph and bind a gut receptor (Borovsky, D. and F. Mahmood (1995) “Feeding the mosquito Aedes aegypti with TMOF and its analogs; effect on trypsin biosynthesis and egg development,” Regulatory Peptides 57:273-281.; Borovsky et al. (1994) “Characterization and localization of mosquito-gut receptors for trypsin modulating oostatic factor using complementary peptide immunochemistry”FASEB J. 8:350-355.). This characteristic permits the testing of TMOF and its analogues by feeding them to mosquito and other pest larvae. To find out if truncated TMOF peptides have an effect on larval growth and development, a series of peptides were synthesized and tested by feeding them to mosquito larvae at concentrations of 0 to 5.0 mg/ml (Table 2). Individual, newly hatched Aedes aegypti larvae were maintained in separate microtiter plate wells on a diet of autoclaved yeast (1 mg/ml). The diet was supplemented with TMOF peptides (Table 2). An identical number of larvae maintained on yeast served as a control. […] All control groups survived and larval growth and development was normal. Since larvae swallow only a small portion of the yeast particles adsorbed the peptides, it is assumed that approximately 1 to 20 ng are taken orally at the high concentrations.

[5] = tested on: TTLE biosynthesis; assay: Feeding TMOF analogs to fourth instar H. virescens: gut trypsin (TTLE) biosynthesis by [3H]DFP; type: in vivo, Heliothis virescens; design: Trypsin: unit not given here; conditions: fourth instar larvae, 0.8 mg of analogue, 5 days; for Trypsin: guts incubated with [3H]DFP; for Inhibition (trypsin): versus control
[6] = tested on: trypsin biosynthesis in the midgut of female Aedes aegypti; assay: NPF injected into blood-fed whole female mosquitoes, midgut trypsin biosynthesis; type: in vivo; conditions: whole blood-fed females, injected 0.25 μl at 10^−6 M, midguts assayed 30 hours later
Experimental: To determine whether NPF I and II affect trypsin biosynthesis in the midgut of female Aedes aegypti, females were fed a blood meal and immediately injected with 0.25 μl of the peptide at concentrations of 2.5 μg to 12.5 pg and 30 hours later the midguts were removed and assayed for trypsin biosynthesis (Borovsky et al., 1990 “Mosquito Oostatic Factor: A Novel Decapeptide Modulating Trypsin-Like Enzyme Biosynthesis in the Midgut” FASEB J. 4:3015-3020; Borovsky et al. 1993 “Mass Spectrometry and Characterization of Aedes aegypti Trypsin Modulating Oostatic Factor (TMOF) and its Analog” Insect Biochem. Molec. Biol. 23:703-712). Each experiment was repeated 3 times (5 females per group) and the results are expressed as % inhibition of trypsin biosynthesis±S.E.M. (FIG. 1).

| Molecule | inhibition of trypsin biosynthesis (ligated abdomens of blood-fed female Aedes aegypti, 30 h after injection) (% inhibition at 10^-6 M) [1] | Number of Dead Larvae [2] | Weight ± S.E.M. [2] | Weight Reduction ± S.E.M. [2] | Weight Gain [3] | Weight mg ± S.E.M. End [3] | Weight mg ± S.E.M. Start [3] | LD50 + S.E.M. [4] | Trypsin [5] | Inhibition (trypsin) [5] | % inhibition of trypsin biosynthesis [6] |
| --- | --- | --- | --- | --- | --- | --- | --- | --- | --- | --- | --- |
| NPF I (Ala-Arg-Gly-Pro-Gln-Leu-Arg-Leu-Arg-Phe-amide) (peptide) | 54 | – | – | – | – | – | – | – | – | – | – |
| YDFAP [14. YDFAP, YDFAP] | – | 1 | 121 ± 7 mg | 26 ± 1.5% | 164 mg | 201 ± 12 mg | 37 ± 1.3 mg | 0.74 ± 0.13 mM | 2.1 ± 0.2 | 19 ± 1.5% | – |
| YSPAP [18. YSPAP, YSPAP] | – | 0 | 168 ± 11 mg | 0% | 151 mg | 188 ± 10.6 mg | 30.6 ± 1.2 mg | 1.4 ± 0.03 mM | 2.0 ± 0.2 | 19 ± 2% | – |
| N[C@@H](CC(=O)O)C(=O)N[C@@H](Cc1ccc(O)cc1)C(=O)N1CCC[C@H]1C(=O)O [31. DYP, DYP] (H-Asp-Tyr-Pro-OH; N-terminus and C-terminus assumed) | – | 1 | 149 ± 9 mg | 9 ± 0.5% | 180.5 mg | 216.7 ± 13 mg | 36.2 ± 2.4 mg | 1.27 ± 0.17 mM | 2.2 ± 0.3 | 14 ± 1.8% | – |
| N[C@@H](Cc1ccc(O)cc1)C(=O)N[C@@H](CC(=O)O)C(=O)N1CCC[C@H]1C(=O)O [34. YDP, YDP] (H-Tyr-Asp-Pro-OH; N-terminus and C-terminus assumed) | – | 0 | 157 ± 10 mg | 4 ± 0.2% | 186.3 mg | 223.4 ± 16 mg | 37 ± 1.5 mg | 2.3 ± 0.4 mM | 2.1 ± 0.3 | 19 ± 3.2% | – |
| Ala-Pro-Ser-Arg-Leu-Arg-Phe-amide (APSRLRF-NH2) [NPF II] | – | – | – | – | – | – | – | – | – | – | 35% |
| YDPGP [16. YDPGP, YDPGP] | – | 2 | 153 ± 10 mg | 6 ± 0.4% | 163.1 mg | 199.8 ± 11 mg | 31.7 ± 1.6 mg | 1.1 ± 0.18 mM | 2.1 ± 0.1 | 17 ± 1% | – |

Source: patent US6593299B1, “Compositions and methods for controlling pests” (priority 1999, dated 2003)
